Patent US20250295636A1, “METHOD FOR PREPARING 4-[5-[BIS(2-CHLOROETHYL)AMINO]-1-METHYL-1H-BENZO[D]IMIDAZOL-2-YL]BUTYRIC ACID ALKYL ESTERS AND FORMYLATED DERIVATIVES” (HERAEUS PRECIOUS METALS GMBH & CO. KG, priority 2022, published 2025)
pIC50: −log10 of the molar value.

Experiments:
Assay type in all cases: cell-based
A375 = test: MTS cell proliferation assay, A375 (skin); conditions: Homo sapiens, A-375, 72 hours at 37° C., 490 nm
Procedure: (§1) Selected cell lines were incubated for 72 hours at 37° C. with different concentrations of 4-[5-[bis(2-chloroethyl)amino]-4-formyl-1-methyl-1H-benzo[d]imidazol-2-yl]butyric acid (concentrations ranging from 1.5 μmol to 5 mmol per liter). The cells were then incubated with MTS solution (Promega) for 1 hour, and the effects of 4-[5-[bis(2-chloroethyl)amino]-4-formyl-1-methyl-1H-benzo[d]imidazol-2-yl]butyric acid on cell proliferation were determined colorimetrically at 490 nm. Cell growth was expressed as a percentage of the corresponding control (0.5 wt. % dimethyl sulfoxide in water).

Calu-6 = test: MTS cell proliferation assay, Calu-6 (lung); conditions: Homo sapiens, 72 hours at 37° C., 490 nm
Procedure: as §1

Caki-1 = test: MTS cell proliferation assay, Caki-1 (kidneys); conditions: Homo sapiens, 72 hours at 37° C., 490 nm
Procedure: as §1

U87MG = test: MTS cell proliferation assay, U87MG (brain); conditions: Homo sapiens, U-87 MG, 72 hours at 37° C., 490 nm
Procedure: as §1

[1] = tested on: skin cancer, kidney cancer, lung cancer, brain tumors and pancreatic cancer; test: cancer-cell-killing or cancer-cell-growth-inhibiting effect (summary of example 3); conditions: summary statement; compound and its pharmaceutically acceptable salts; concentration at which 50% of the cancer cells are killed
Procedure: IC50 stands for “inhibition concentration,” at which 50% of the cancer cells are killed.
as §1

BxPC-3 = test: MTS cell proliferation assay, BxPC-3 (pancreas); conditions: Homo sapiens, 72 hours at 37° C., 490 nm
Procedure: as §1

Cn1c(CCCC(=O)O)nc2c(C=O)c(N(CCCl)CCCl)ccc21 [4-[5-[bis(2-chloroethyl)amino]-4-formyl-1-methyl-1H-benzo[d]imidazol-2-yl]butyric acid]
pIC50 (A375): 2.89 | pIC50 (Calu-6): 2.89 | pIC50 (Caki-1): 2.80 | pIC50 (U87MG): 2.54 | low IC50 concentration range [1]: one hundred | pIC50 (BxPC-3): 3.13
